Measurements as given in ChEMBL document CHEMBL1201862, “PubChem BioAssay data set” (2004).
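48-hour exposure; five concentrations; linearly interpolated endpoints. Here, GI50 denotes the concentration required for 50% inhibition of growth.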 Active and inactive are the calls of the source. No stated cut-off is given here; in the data, active = GI50 up to about 1.1 µM and inactive = higher.

Assays:
Assay in all cases: growth of human tumour cells (NCI), 48 h
NCI-H460 = test system: NCI-H460
NCI-H226 = test system: NCI-H226
XF498 = test system: XF498
LOX IMVI = test system: LOX IMVI
EKVX = test system: EKVX
ACHN = test system: ACHN
CAKI-1 = test system: CAKI-1
SF-268 = test system: SF-268
RXF 631 = test system: RXF 631
SNB-19 = test system: SNB-19
M14 = test system: M14
NCI-H23 = test system: NCI-H23
UO-31 = test system: UO-31
RPMI-8226 = test system: RPMI-8226
K562 = test system: K562
COLO 205 = test system: COLO 205
786-0 = test system: 786-0
OVCAR-3 = test system: OVCAR-3
SNB-78 = test system: SNB-78
HT-29 = test system: HT-29
Malme-3M = test system: Malme-3M
HCT-116 = test system: HCT-116
HCT-15 = test system: HCT-15
DLD-1 = test system: DLD-1
HOP-92 = test system: HOP-92
HCC 2998 = test system: HCC 2998
U-251 = test system: U-251
TK-10 = test system: TK-10
DMS-273 = test system: DMS-273
SNB-75 = test system: SNB-75
SK-MEL-28 = test system: SK-MEL-28
OVCAR-4 = test system: OVCAR-4
A549 = test system: A549
RXF 393 = test system: RXF 393
UACC-62 = test system: UACC-62
SK-OV-3 = test system: SK-OV-3
HOP-62 = test system: HOP-62
NCI-H522 = test system: NCI-H522
KM-20L2 = test system: KM-20L2
OVCAR-8 = test system: OVCAR-8
KM12 = test system: KM12
MOLT-4 = test system: MOLT-4
SF-539 = test system: SF-539
SK-MEL-2 = test system: SK-MEL-2
UACC-257 = test system: UACC-257
SN12C = test system: SN12C
SK-MEL-5 = test system: SK-MEL-5
M19-MEL = test system: M19-MEL
CCRF-CEM = test system: CCRF-CEM
IGROV-1 = test system: IGROV-1
A498 = test system: A498
LXFL 529 = test system: LXFL 529
OVCAR-5 = test system: OVCAR-5
SW-620 = test system: SW-620

In the case of Nc1cccc2c1C(=O)c1cccc(N)c1C2=O, the GI50 (NCI-H460) is reported as > 100 µM (inactive), the GI50 (NCI-H226) is reported as > 100 µM (inactive) and the GI50 (XF498) is reported as 19.4 µM (inactive). For the same compound, the GI50 (LOX IMVI) was > 100 µM (inactive), the GI50 (EKVX) was > 100 µM (inactive) and the GI50 (ACHN) was > 100 µM (inactive). For the same compound, the GI50 (CAKI-1) was > 100 µM (inactive), the GI50 (SF-268) was > 100 µM (inactive) and the GI50 (RXF 631) was > 100 µM (inactive). For the same compound, the GI50 (SNB-19) was > 100 µM (inactive), the GI50 (M14) was > 100 µM (inactive) and the GI50 (NCI-H23) was > 100 µM (inactive). The GI50 (UO-31) was > 100 µM (inactive), the GI50 (RPMI-8226) was > 100 µM (inactive) and the GI50 (K562) was > 100 µM (inactive). For the same compound, the GI50 (COLO 205) was > 100 µM (inactive), the GI50 (786-0) was > 100 µM (inactive) and the GI50 (OVCAR-3) was > 100 µM (inactive). The GI50 (SNB-78) was > 100 µM (inactive), the GI50 (HT-29) was > 100 µM (inactive) and the GI50 (Malme-3M) was > 100 µM (inactive). For the same compound, the GI50 (HCT-116) was > 100 µM (inactive), the GI50 (HCT-15) was > 100 µM and the GI50 (DLD-1) was > 100 µM (inactive). The GI50 (HOP-92) was > 100 µM (inactive), the GI50 (HCC 2998) was > 100 µM (inactive) and the GI50 (U-251) was > 100 µM (inactive). The GI50 (TK-10) was > 100 µM (inactive), the GI50 (DMS-273) was > 100 µM (inactive) and the GI50 (SNB-75) was > 100 µM (inactive). For the same compound, the GI50 (SK-MEL-28) was > 100 µM (inactive), the GI50 (OVCAR-4) was > 100 µM (inactive) and the GI50 (A549) was > 100 µM (inactive). The GI50 (RXF 393) was 46.3 µM (inactive), the GI50 (UACC-62) was > 100 µM (inactive) and the GI50 (SK-OV-3) was > 100 µM (inactive). For the same compound, the GI50 (HOP-62) was > 100 µM (inactive), the GI50 (NCI-H522) was > 100 µM (inactive) and the GI50 (KM-20L2) was > 100 µM (inactive). For the same compound, the GI50 (OVCAR-8) was > 100 µM (inactive), the GI50 (KM12) was > 100 µM (inactive) and the GI50 (MOLT-4) was > 100 µM (inactive). For the same compound, the GI50 (SF-539) was > 100 µM (inactive), the GI50 (SK-MEL-2) was > 100 µM (inactive) and the GI50 (UACC-257) was > 100 µM (inactive). For the same compound, the GI50 (SN12C) was > 100 µM (inactive), the GI50 (SK-MEL-5) was > 100 µM (inactive) and the GI50 (M19-MEL) was > 100 µM (inactive). The GI50 (CCRF-CEM) was > 100 µM (inactive), the GI50 (IGROV-1) was > 100 µM (inactive) and the GI50 (A498) was > 100 µM (inactive). For the same compound, the GI50 (LXFL 529) was > 100 µM (inactive), the GI50 (OVCAR-5) was > 100 µM (inactive) and the GI50 (SW-620) was > 100 µM (inactive).
